Patent EP4647082A1, “PHARMACEUTICAL COMPOSITION COMPRISING A CGRP RECEPTOR ANTAGONIST FOR THE TREATMENT OF ACUTE MIGRAINE” (NUVIE BIO, Inc., priority 2024, dated 2025)
Like-named read-outs stand apart in the source and are kept apart here. Bridge positions count the residues as written; N and C are the ends. Square brackets hold non-standard residues; d marks the D form. Peptide text beside a SMILES is read from it. * marks the point of attachment. Phe(2-CONH2) = NC(=O)c1ccccc1C[C@H](N)C(=O)O; Orn(iPr) = CC(C)NCCC[C@H](N)C(=O)O; Oxazole2carbonyl = O=C(c1ncco1)*; 3Pal = N[C@@H](Cc1cccnc1)C(=O)O

Assay: Phase I first-in-human study, pharmacokinetics after single ascending subcutaneous doses in healthy volunteers
Assay type: in vivo
Conditions: for AUC(0-inf) / AUC(0-t) / CL/F / Cmax / Tmax / half-life / level at 1 h / level at 2 h / level at 3 h / level at 0.08 h / level at 0.17 h / level at 0.25 h / level at 0.33 h / level at 0.5 h / level at 0.75 h / level at 4 h / level at 6 h / level at 8 h: human, plasma, mean; for level at 1 h: nominal time 1 h; for level at 1 h / level at 2 h / level at 3 h / level at 0.08 h / level at 0.17 h / level at 0.25 h / level at 0.33 h / level at 0.5 h / level at 0.75 h / level at 4 h / level at 6 h / level at 8 h: read-out: Plasma Concentration AXN-001; for level at 2 h: nominal time 2 h; for level at 3 h: nominal time 3 h; for level at 0.08 h: nominal time 0.08 h; for level at 0.17 h: nominal time 0.17 h; for level at 0.25 h: nominal time 0.25 h; for level at 0.33 h: nominal time 0.33 h; for level at 0.5 h: nominal time 0.50 h; for level at 0.75 h: nominal time 0.75 h; for level at 4 h: nominal time 4 h; for level at 6 h: nominal time 6 h; for level at 8 h: nominal time 8 h
Experimental: For Phase I clinical studies, the 32 mg/mL pharmaceutical composition was dosed subcutaneously. The Phase I clinical trial was a randomised, double-blind, placebo-controlled, first-in-human study of the safety, tolerability and pharmacokinetics of AXN-001 in healthy volunteers under Protocol No. AXN-001-01 .
The pharmacokinetic objective of the clinical trial was to provide pharmacokinetic analysis of AXN-001 following single ascending subcutaneous doses of AXN-001. The study design included the following Cohorts: • Cohort 1: Dose 1 mg (2 mg/mL formulation); • Cohort 2: Dose 2 mg (4 mg/mL formulation); • Cohort 3: Dose 4 mg (8 mg/mL formulation); • Cohort 4: Dose 8 mg (16 mg/mL formulation); • Cohort 5: Dose 16 mg (32 mg/mL formulation).
Participants were administered a single dose (0.5 mL) of AXN-001 or placebo via subcutaneous (SC) injection into the abdomen. Blood samples were collected at specified time points for pharmacokinetic analysis (5,10,15,20,30,45,60 minutes; 2,3,4,6,8,12,24 hours). Individual plasma concentrations of ANX-001 were determined and used for analyses.
Pharmacokinetic (PK) parameters of AXN-001 were determined using Phoenix WinNonlin version 8.3. All concentrations below the limit of quantification (BLQ) were set to zero for the purpose of the PK analysis. All AUC determinations were made using linear trapezoidal method. The following parameters were determined: Cmax Maximum observed concentration. as read directly from the observed data. Tmax Time to maximum concentration T10nM Time to 10 nM T30nM Time to 30 nM T100nM Time to 100 nM AUC0-t Area under the concentration-time curve from time zero to the time of the last measurable concentration, calculated using linear trapezoidal rule AUC0-inf Area under the concentration-time curve from time zero to infinity, calculated using linear trapezoidal rule %AUCextrap The portion of AUC determined by extrapolation t1/2 Apparent terminal elimination half-life CL/F or CL Total apparent body clearance Vz/F or Vz Apparent volume of distribution λz Terminal elimination rate constant

**Q.** For CC(C)NCCC[C@@H]1NC(=O)[C@@H](NC(=O)[C@H](Cc2ccccc2C(N)=O)NC(=O)[C@H](NC(=O)c2ncco2)C(C)C)CSSC[C@@H](C(=O)N[C@@H](Cc2cccnc2)C(N)=O)NC(=O)[C@H](Cc2ccccc2)NC(=O)[C@@H]2CCCN2C(=O)CNC(=O)[C@H](C(C)C)NC(=O)[C@H](CC(=O)O)NC1=O [AXN-001, Oxazole-2-carbonyl-D-Val-Phe(2-Cbm)-c(Cys-Orn (iPr)-Asp-Val-Gly-Pro-Phe-Cys)-3Pal-NH2] (Oxazole2carbonyl-[dV][Phe(2-CONH2)]C[Orn(iPr)]DVGPFC[3Pal]-NH2; disulfide 3-10), which “subjects who achieved plasma concentrations of 30nM” value (1 mg cohort) is on record?
**A.** 1 of 6

**Q.** And the “subjects who achieved plasma concentrations of 30nM” value (2 mg cohort)?
**A.** 5 of 6

**Q.** What about the “subjects who achieved 100nM plasma concentrations” value (4 mg cohort) of the same molecule?
**A.** 2/5

**Q.** What about the “subjects who achieved plasma concentrations of 30nM” value (4, 8, and 16 mg cohort) of the same molecule?
**A.** All subjects

**Q.** And the “subjects who achieved 100nM plasma concentrations” value (8 and 16 mg cohorts)?
**A.** All subjects

**Q.** And the “time to achieve plasma concentrations of 10nM AXN-001” value (all subjects at all doses (1-16 mg SC))?
**A.** less than 15 minutes

**Q.** What about the AUC(0-inf) (single SC dose 1 mg) of the same molecule?
**A.** 101 ng·h/mL

**Q.** What about the AUC(0-t) (single SC dose 1 mg) of the same molecule?
**A.** 96.1 ng·h/mL

**Q.** What about the CL/F (single SC dose 1 mg) of the same molecule?
**A.** 167 mL/min

**Q.** What about the Cmax (single SC dose 1 mg) of the same molecule?
**A.** 39.5 ng/mL

**Q.** And the Tmax (single SC dose 1 mg)?
**A.** 0.792 h

**Q.** And the half-life (single SC dose 1 mg)?
**A.** 1.31 h

**Q.** And the level at 1 h (single SC dose 1 mg)?
**A.** 35.1 ng/mL

**Q.** And the level at 2 h (single SC dose 1 mg)?
**A.** 22.8 ng/mL

**Q.** What about the level at 3 h (single SC dose 1 mg) of the same molecule?
**A.** 13.7 ng/mL

**Q.** And the AUC(0-inf) (single SC dose 2 mg)?
**A.** 167 ng·h/mL

**Q.** What about the AUC(0-t) (single SC dose 2 mg) of the same molecule?
**A.** 159 ng·h/mL

**Q.** What about the CL/F (single SC dose 2 mg) of the same molecule?
**A.** 210 mL/min

**Q.** What about the Cmax (single SC dose 2 mg) of the same molecule?
**A.** 65 ng/mL

**Q.** What about the Tmax (single SC dose 2 mg) of the same molecule?
**A.** 0.792 h

**Q.** And the half-life (single SC dose 2 mg)?
**A.** 1.35 h

**Q.** What about the level at 0.08 h (single SC dose 2 mg) of the same molecule?
**A.** 11.3 ng/mL

**Q.** What about the level at 0.17 h (single SC dose 2 mg) of the same molecule?
**A.** 21.6 ng/mL

**Q.** And the level at 0.25 h (single SC dose 2 mg)?
**A.** 31.5 ng/mL

**Q.** And the level at 0.33 h (single SC dose 2 mg)?
**A.** 40.4 ng/mL

**Q.** And the level at 0.5 h (single SC dose 2 mg)?
**A.** 55.7 ng/mL

**Q.** What about the level at 0.75 h (single SC dose 2 mg) of the same molecule?
**A.** 62.6 ng/mL

**Q.** And the level at 1 h (single SC dose 2 mg)?
**A.** 60.2 ng/mL

**Q.** And the level at 2 h (single SC dose 2 mg)?
**A.** 38.1 ng/mL

**Q.** And the level at 3 h (single SC dose 2 mg)?
**A.** 21.3 ng/mL

**Q.** And the level at 4 h (single SC dose 2 mg)?
**A.** 11.4 ng/mL

**Q.** And the level at 6 h (single SC dose 2 mg)?
**A.** 4.79 ng/mL

**Q.** What about the level at 8 h (single SC dose 2 mg) of the same molecule?
**A.** 0.713 ng/mL

**Q.** And the AUC(0-inf) (single SC dose 4 mg)?
**A.** 343 ng·h/mL

**Q.** And the AUC(0-t) (single SC dose 4 mg)?
**A.** 337 ng·h/mL

**Q.** What about the CL/F (single SC dose 4 mg) of the same molecule?
**A.** 197 mL/min

**Q.** What about the Cmax (single SC dose 4 mg) of the same molecule?
**A.** 133 ng/mL

**Q.** What about the Tmax (single SC dose 4 mg) of the same molecule?
**A.** 0.7 h

**Q.** And the half-life (single SC dose 4 mg)?
**A.** 1.36 h

**Q.** And the level at 0.08 h (single SC dose 4 mg)?
**A.** 9.6 ng/mL

**Q.** And the level at 0.17 h (single SC dose 4 mg)?
**A.** 35.3 ng/mL

**Q.** What about the level at 0.25 h (single SC dose 4 mg) of the same molecule?
**A.** 71.4 ng/mL

**Q.** And the level at 0.33 h (single SC dose 4 mg)?
**A.** 87.8 ng/mL

**Q.** And the level at 0.5 h (single SC dose 4 mg)?
**A.** 115 ng/mL

**Q.** And the level at 0.75 h (single SC dose 4 mg)?
**A.** 123 ng/mL

**Q.** What about the level at 1 h (single SC dose 4 mg) of the same molecule?
**A.** 134 ng/mL

**Q.** And the level at 2 h (single SC dose 4 mg)?
**A.** 82.5 ng/mL

**Q.** And the level at 3 h (single SC dose 4 mg)?
**A.** 44.7 ng/mL

**Q.** And the level at 4 h (single SC dose 4 mg)?
**A.** 23.5 ng/mL

**Q.** What about the level at 6 h (single SC dose 4 mg) of the same molecule?
**A.** 8.25 ng/mL

**Q.** And the level at 8 h (single SC dose 4 mg)?
**A.** 3.09 ng/mL

**Q.** And the AUC(0-inf) (single SC dose 8 mg)?
**A.** 594 ng·h/mL

**Q.** And the AUC(0-t) (single SC dose 8 mg)?
**A.** 585 ng·h/mL

**Q.** What about the CL/F (single SC dose 8 mg) of the same molecule?
**A.** 225 mL/min

**Q.** What about the Cmax (single SC dose 8 mg) of the same molecule?
**A.** 244 ng/mL

**Q.** And the Tmax (single SC dose 8 mg)?
**A.** 0.75 h

**Q.** And the half-life (single SC dose 8 mg)?
**A.** 1.47 h

**Q.** And the level at 0.08 h (single SC dose 8 mg)?
**A.** 32.1 ng/mL

**Q.** And the level at 0.17 h (single SC dose 8 mg)?
**A.** 84 ng/mL

**Q.** And the level at 0.25 h (single SC dose 8 mg)?
**A.** 118 ng/mL

**Q.** And the level at 0.33 h (single SC dose 8 mg)?
**A.** 144 ng/mL

**Q.** What about the level at 0.5 h (single SC dose 8 mg) of the same molecule?
**A.** 199 ng/mL

**Q.** And the level at 0.75 h (single SC dose 8 mg)?
**A.** 240 ng/mL

**Q.** And the level at 1 h (single SC dose 8 mg)?
**A.** 226 ng/mL
